Here are results for 2 compounds from PMC7179302, “Lead Optimization of Dehydroemetine for Repositioned Use in Malaria” (Antimicrobial Agents and Chemotherapy, 2020).

Data set [1] deals with mitochondrial membrane potential of P. falciparum strain K1 trophozoites. Kind of data set: Rhodamine 123 staining for mitochondrial membrane potential, flow cytometry. Type of data set: cell-based, Plasmodium falciparum. Particulars: deviation from infected blood without drugs. The protocol:
Changes in mitochondrial membrane potential were measured using rhodamine 123 (excitation wavelength, 511 nm; emission wavelength, 534 nm), a membrane-permeating cationic fluorescent dye ([49]), which accumulates by electrostatic attraction in the mitochondria because of its negative transmembrane potential. A change in the dye’s concentration in the mitochondria is caused by a depolarization event and can be visualized as a shift in the fluorescence intensity of rhodamine 123 ([50]). Draq5 (excitation wavelength, 647 nm; emission wavelength, >665 nm) is a far-red fluorescent DNA dye which is cell permeating and was used to distinguish the parasites in flow cytometry in the allophycocyanin (APC)-Cy7-A channel. SYBR green was not preferred for this experiment as it emits in the same channel as rhodamine 123 and would result in the overlap of emission signals. Fluorescence microscopy was used to visualize the localization of rhodamine 123 within the cytoplasm of the parasites (Fig. 9).
A decrease in fluorescence intensity measured in the fluorescein isothiocyanate (FITC)-A channel indicates a loss of mitochondrial membrane potential. Atovaquone, a known mitochondrial inhibitor, was used as a control.
Compounds were then washed away by centrifuging the cultures, and a pellet was prepared for each drug concentration. Pellets were then incubated with 1 ml of 200 nM rhodamine 123 for 1 h, followed by a further incubation with 100 μl of 5 μM Draq5 for 20 min. After a wash with PBS, the experiment was read with a flow cytometer on the FITC channel. Loss of mitochondrial membrane potential was indicated by a decrease in fluorescence intensity.

Data set [2] concerns P. falciparum strain 3D7A. Kind of data set: 3H-hypoxanthine incorporation assay, strain 3D7A. Type of data set: cell-based. Conditions: Plasmodium falciparum; sensitive strain 3D7A, 3H-hypoxanthine incorporation; read-out: IC50 (μM) 3D7A. The protocol:
(§1) The cross-resistance assay used relies on the parasites’ incorporation of labeled 3H-hypoxanthine, which is proportional to P. falciparum growth. In vitro cross-resistance of the compounds is measured as the ratio between the IC50 for the tested P. falciparum strain and the IC50 for strain 3D7A. Every replicate from a multidrug-resistant (MDR) strain involved a simultaneous determination using a 3D7A replicate to avoid any artifact linked to experimental conditions.
(§2) The three strains used for the cross-resistance assay were 3D7A, Dd2, and W2, based on their resistance profiles; the assay was carried out by GSK, Tres Cantos. Strain 3D7A is chloroquine sensitive, strain Dd2 is resistant to chloroquine, mefloquine, and pyrimethamine ([57]), and strain W2 is resistant to chloroquine, quinine, pyrimethamine, cycloguanil, and sulfadoxine (from the Malaria Research and Reference Reagent Resource Center [MR4]) ([58]). A culture of red blood cells (RBCs) parasitized by the corresponding strain (0.5% parasitemia, 2% hematocrit) in RPMI 1640, […], and 5 μM hypoxanthine was exposed to 9 dilutions (3-fold serial dilutions) of the compound starting at 5 μM. One hundred microliters of culture volume was plated in 96-well flat-bottom microtiter plates with 0.5 μl drug (200× stock in DMSO). Plates were incubated for 24 h at 37°C, 5% CO2, 5% O2, 90% N2. Next, 3H-hypoxanthine was added and plates were incubated for another 24-h period. After that, parasites were harvested on a glass fiber filter using a TomTec cell harvester 96. Filters were dried, and melt-on scintillator sheets were used to determine the incorporation of 3H-hypoxanthine. Radioactivity was measured using a MicroBeta counter. […] IC50 values were determined using the Grafit 7 program ([41]).

The subject of data set [3] is K1 strain of P. falciparum. Also on record: method as in PMID 15610563, PMID 24107123. Particulars: mean ± standard deviation; cited from earlier work.
Another data set has as its system HepG2 cells. Kind of data set: MTT assay for cell cytotoxicity against HepG2 cells. It counts as cell-based. Conditions: HepG2 cells, 48 h; ± SD. How it is done:
HepG2 cells (University of Salford stocks, purchased from American Type Culture Collection [ATCC], USA), were grown in medium consisting of RPMI 1640, 2 mM L-glutamine, HEPES, 10% fetal bovine serum, 1% nonessential amino acids, and 1% penicillin-streptomycin. Cells were calculated on a hemocytometer to make a new cell-medium solution to a concentration of 5,000 cells/100 μl, and 100 μl of this new cell solution was added into each well of the 96-well plate. After 24 h of incubation, 100-μl amounts of the drug prepared in the medium were added to the wells. This was repeated in triplicate, and the plate was incubated for a further 48 h ([56]). After the incubation period, 50 μl of MTT solution was added to each well and incubated for 3 h. The liquid in each well was aspirated carefully, 200 μl of DMSO was added to each well, and the results were read on the Ascent plate reader.

In another data set the test system is P. falciparum strain Dd2. Kind of data set: microbe, parasite or virus in culture. Type of data set: cell-based. Particulars: Plasmodium falciparum, DD2, read-out: IC50 (μM) Dd2. How it is done:
as §1, §2

The subject of another data set is P. falciparum strain W2. Kind of data set: microbe, parasite or virus in culture. Type of data set: cell-based. Conditions: Plasmodium falciparum, W2, read-out: IC50 (μM) W2. How it is done: as §1, §2
The subject of the next data set is Entamoeba histolytica. Also on record: method as in PMID 15610563, PMID 24107123. Particulars: cited from earlier work.

Structures are written as SMILES. Counter-ions that a name gives are not always drawn.

The term IC50 denotes the concentration needed to halve the response being measured.

As to `O=C1C(O)=C([C@H]2CC[C@H](c3ccc(Cl)cc3)CC2)C(=O)c2ccccc21` [Atovaquone, atovaquone], the “Change in fluorescence intensity (FITC-A mean) of rhodamine 123” value in data set [1] (at 10× IC50, 2 h) is given as 43.17%; in data set [1] (at IC50, 2 h), 41.95%.

On to `CC[C@H]1CN2CCc3cc(OC)c(OC)cc3[C@@H]2C[C@@H]1C[C@H]1NCCc2cc(OC)c(OC)cc21` [Emetine dihydrochloride, emetine dihydrochloride, reference compound], for which the 50% inhibitory concentration (IC50) in data set [2] was 0.234 µM; in data set [3], 47 nM; with P. falciparum strain Dd2, 0.269 µM; in the data set on P. falciparum strain W2, 0.181 µM; in the data set with Entamoeba histolytica it was 26800 ± 1270 nM. The “Change in fluorescence intensity (FITC-A mean) of rhodamine 123” value in data set [1] (at 10× IC50, 2 h) stood at 35.13%; in data set [1] (at IC50, 2 h) it was 31.12%. In the data set with HepG2 cells, the “LD50 (50% lethal dose), MTT assay” value worked out at 199.2 ± 9.3 nM.
